According to PMC10597491 (PLOS ONE, 2023):
Bridge positions count the residues as written; N and C are the ends. Peptide text beside a SMILES is read from it.

Tests used:
human γc ECD = molecular target: T1, human γc ECD (Homo sapiens, UniProt P31785); assay: Competition binding ELISA, human γc ECD; settings: immobilized Fc-γc ECD; tracer biotinylated MDK1188 pre-complexed with Neutravidin-HRP; 4°C
T1 construct: human IL-2Rα(aa 23–254)-Fc, Acro Cat# ILG-H5256; purchased Acro ILG-H5256
T1 sequence (P31785 23-254): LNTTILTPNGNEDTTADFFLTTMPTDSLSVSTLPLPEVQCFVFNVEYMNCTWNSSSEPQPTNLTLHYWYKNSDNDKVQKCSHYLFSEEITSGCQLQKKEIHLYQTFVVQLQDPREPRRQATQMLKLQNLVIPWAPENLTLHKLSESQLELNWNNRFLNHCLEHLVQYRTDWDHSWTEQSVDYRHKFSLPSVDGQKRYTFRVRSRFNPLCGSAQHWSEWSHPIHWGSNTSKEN
From the text: (§1) (A, B) Determination of IC50 values in a competition ELISA for compound binding to human and cyno IL-7Rα and γc. The assay format is IL-7Rα-(His)6-tagged ECD or Fc-γc ECD immobilized on 96-well plates. Tracers are C-terminal biotinylated forms of the reference IL-7Rα and γc peptide ligands, each pre-complexed with Neutravidin-HRP (NA-HRP). (C, D) Label-free measurement of the equilibrium dissociation constant (KD) for peptide binding to IL-7Rα and γc extracellular domains with peptides was performed by biolayer interferometry as detailed in methods. Red lines depict 1:1 binding fit from Gator™ software. Blue lines represent individual BLI sensogram data taken every 0.1 seconds.
(§2) Binding was determined using a competition binding ELISA. Microtiter plates (Immulon 4HBX flat bottom 96-well) were coated with 50 μL of […] human ECDs: IL-7Rα(aa 21–236)-His6, Sino Biological Cat# 10975-H08H; cynomolgus IL-7Rα(aa 21–235)-His6, Sino Biological Cat# 90332-C08H; human IL-2Rα(aa 23–254)-Fc, Acro Cat# ILG-H5256; cynomolgus IL-2Rα(aa 23–254)-Fc, made in-house, in PBS overnight at 4°C. […] Plates were washed with cold wash buffer, and bound tracer was detected using TMB One Component HRP substrate and Stop Solution (Surmodics Cat# TMBW-1000-01 and LSTP-0100-01). Absorbance at 450 nm was read using Agilent BioTek Synergy HTX Multimode Reader.

IL-7R = molecular target: T2, IL-7R (Homo sapiens, UniProt P16871+P31785); assay: STAT5 phosphorylation in TF1-7Rα cells; type: cell-based; settings: TF1-7Rα cells, 10 μM peptide alone
T2 construct: constructed to express full-length human IL-7Rα in TF-1 cells; TF-1 cells, which naturally express γc, but not IL-7Rα; expressed in transfected cells
T2 sequence (P16871 21-459): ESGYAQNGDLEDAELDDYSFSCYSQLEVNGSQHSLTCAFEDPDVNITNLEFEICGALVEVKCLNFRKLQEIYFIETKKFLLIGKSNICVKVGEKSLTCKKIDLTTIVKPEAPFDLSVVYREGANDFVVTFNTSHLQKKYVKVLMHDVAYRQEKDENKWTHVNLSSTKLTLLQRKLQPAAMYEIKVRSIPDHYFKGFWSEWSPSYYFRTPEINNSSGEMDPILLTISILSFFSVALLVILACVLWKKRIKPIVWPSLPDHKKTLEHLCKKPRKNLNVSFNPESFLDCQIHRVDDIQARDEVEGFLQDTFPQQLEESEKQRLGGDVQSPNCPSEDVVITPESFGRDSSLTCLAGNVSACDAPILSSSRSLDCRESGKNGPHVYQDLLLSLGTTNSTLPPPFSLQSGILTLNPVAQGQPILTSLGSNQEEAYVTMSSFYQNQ
T2 sequence (P31785 23-369): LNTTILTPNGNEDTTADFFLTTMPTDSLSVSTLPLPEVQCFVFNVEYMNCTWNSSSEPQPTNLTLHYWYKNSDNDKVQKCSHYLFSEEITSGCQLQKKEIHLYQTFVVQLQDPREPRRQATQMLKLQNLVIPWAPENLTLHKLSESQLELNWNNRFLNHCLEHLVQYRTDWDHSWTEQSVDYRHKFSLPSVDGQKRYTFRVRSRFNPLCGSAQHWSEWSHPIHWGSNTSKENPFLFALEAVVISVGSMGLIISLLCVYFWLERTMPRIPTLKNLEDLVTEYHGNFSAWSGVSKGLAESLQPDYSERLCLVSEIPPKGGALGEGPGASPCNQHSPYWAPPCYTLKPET
Protocol: The synthetic peptide MDK1472 was designed to bind simultaneously to IL-7Rα and γc subunits and was tested for its ability to induce phosphorylation of STAT5, the primary IL-7R signaling pathway.
Reactions were stopped and cell lysates prepared for pSTAT5 analysis.
(§3) Cells were deprived of growth factors by overnight incubation at 5×10^5 cells/mL in starvation medium (RPMI 1640 + 4.5 g/L glucose + 0.2% FBS + 2 mM L-glutamine + 1 mM NaPyr + 10 mM HEPES + 0.5x penicillin-streptomycin with no cytokine supplement) in T75 flasks. For assays, cells were plated in 96-well V-bottom plates at 2×10^5 cells/well. Three-fold serial dilutions in starvation medium of the test compounds or cytokine were added to the cells and incubated for 30 min at 37°C. Following incubation, cell extracts were prepared by adding a mixture of 10x Cell Lysis Buffer (Cell Signaling Technology Cat# 9803) and 100x HALT Phosphatase and Protease Inhibitor Cocktail (Thermo Fisher Cat# 78442) directly to the wells. The plates were agitated at 25°C for 5 min to prepare cell extracts for immediate use or to be stored at -80°C until assay. Detection of pSTAT5 was performed using a PathScan® Phospho-Stat5 (pTyr694) Sandwich ELISA Kit (Cell Signaling Technology Cat# 7113). Detection of pSTAT6 was performed using a PathScan® Phospho-Stat6 (pTyr641) Sandwich ELISA Kit (Cell Signaling Technology Cat# 7275). Detection of pSTAT3 was performed using a PathScan® Phospho-Stat3 (pTyr705) Sandwich ELISA Kit (Cell Signaling Technology Cat# 7300). Cell lysates were added to pre-coated ELISA wells and incubated at 4°C overnight. Primary and secondary antibody incubations and wash steps were performed according to the protocols supplied by the manufacturer. Assays were developed using TMB substrate (Surmodics Cat# TMBW-1000-01) for 5–10 min at 25°C and the reaction was stopped using STOP solution (Surmodics Cat# LSTP-1000-01).

IL-2βγc receptor = molecular target: T3, IL-2βγc receptor (Homo sapiens, UniProt P31785); assay: IL-2-induced pSTAT5 in TF-1 cells expressing IL-2/15Rβ; type: cell-based
T3 construct: pcDNA3.1 expression vector encoding full-length IL-2Rβ, IL-7Rα, IL-9Rα, or IL-21Rα; TF-1 cells naturally express γc and IL-4Rα; expressed in transfected cells
T3 sequence (P31785 23-369): T2 sequence (P31785 23-369)
Protocol: as §3, with “Primary and secondary antibody incubations and wash steps were performed according to the protocols supplied by the manufacturer. Assays were developed using TMB substrate (Surmodics Cat# TMBW-1000-01) for 5–10 min at 25°C and the reaction was stopped using STOP solution (Surmodics Cat# LSTP-1000-01).” left out

human IL-7Rα ECD = molecular target: T4, human IL-7Rα ECD (Homo sapiens, UniProt P16871); assay: Competition binding ELISA, human IL-7Rα ECD; settings: immobilized IL-7Rα-(His)6 ECD; tracer biotinylated MDK1248 pre-complexed with Neutravidin-HRP; 4°C; valency-sensitive format
T4 construct: IL-7Rα(aa 21–236)-His6, Sino Biological Cat# 10975-H08H; His6 (C); purchased Sino Biological 10975-H08H
T4 sequence (P16871 21-236): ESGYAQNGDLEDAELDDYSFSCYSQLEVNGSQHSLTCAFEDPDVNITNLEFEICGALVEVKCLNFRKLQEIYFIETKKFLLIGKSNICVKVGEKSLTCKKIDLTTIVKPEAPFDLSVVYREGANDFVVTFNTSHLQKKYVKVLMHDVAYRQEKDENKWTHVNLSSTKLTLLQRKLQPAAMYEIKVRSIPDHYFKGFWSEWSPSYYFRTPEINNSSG
From the text: as §1, §2

cynomolgus IL-7Rα = molecular target: T5, cynomolgus IL-7Rα (Macaca fascicularis, UniProt Q38IC7); assay: Competition binding ELISA, cynomolgus IL-7Rα ECD; settings: immobilized cynomolgus IL-7Rα-His6 ECD; biotinylated peptide/NA-HRP tracer; read-out: Competition ELISA IC50, IL-7Rα Cyno
T5 construct: cynomolgus IL-7Rα(aa 21–235)-His6, Sino Biological Cat# 90332-C08H; His6 (C); purchased Sino Biological 90332-C08H
T5 sequence (Q38IC7 21-235): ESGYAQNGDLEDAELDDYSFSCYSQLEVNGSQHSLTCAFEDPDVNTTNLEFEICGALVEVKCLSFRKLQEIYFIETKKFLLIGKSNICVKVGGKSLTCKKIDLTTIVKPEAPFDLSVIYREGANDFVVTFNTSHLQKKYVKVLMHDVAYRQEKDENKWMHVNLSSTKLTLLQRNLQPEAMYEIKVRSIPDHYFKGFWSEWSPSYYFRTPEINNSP
From the text: as §1, §2

| IC50 (human γc ECD) [nM] | induction of pSTAT5 by individual peptide ligands (IL-7R) | IC50 (IL-2βγc receptor) [nM] | IC50 (human IL-7Rα ECD) [nM] | IC50 (cynomolgus IL-7Rα) [nM] | Structure (SMILES) |
| --- | --- | --- | --- | --- | --- |
| 24 | no induction of pSTAT5 | 1600 | – | – | CC(C)C[C@@H]1NC(=O)[C@H](CCC(=O)O)NC(=O)[C@H](C(C)C)NC(=O)CNC(=O)[C@H](CCC(=O)O)NC(=O)[C@H](Cc2c[nH]c3ccccc23)NC(=O)[C@H](CC(=O)O)NC(=O)[C@H](CCC(N)=O)NC(=O)[C@@H](NC(=O)[C@@H](NC(=O)[C@@H](NC(=O)CNC(=O)CN)C(C)C)C(C)C)CSSC[C@@H](C(=O)N[C@@H](Cc2c[nH]c3ccccc23)C(=O)N[C@@H](CCC(N)=O)C(=O)NCC(=O)NCC(=O)O)NC1=O [MDK1188] |
| – | no induction of pSTAT5 | – | 150 | 92 | CC[C@H](C)[C@H](NC(=O)CNC(=O)[C@H](Cc1c[nH]c2ccccc12)NC(=O)CN)C(=O)N1CCC[C@H]1C(=O)N[C@@H](Cc1c[nH]c2ccccc12)C(=O)N[C@H]1CSSC[C@@H](C(=O)N[C@@H](C)C(=O)N[C@@H](Cc2c[nH]c3ccccc23)C(=O)N[C@@H](CC(C)C)C(=O)NCC(=O)N[C@@H](CCCCN)C(=O)N[C@@H](Cc2c[nH]cn2)C(=O)NCC(=O)NCC(=O)O)NC(=O)[C@H](CCC(N)=O)NC(=O)[C@H](CC(C)C)NC(=O)[C@H](CO)NC(=O)CNC(=O)[C@@H]2CCCN2C(=O)[C@H](CC(=O)O)NC(=O)[C@H](CC(C)C)NC(=O)[C@H]([C@@H](C)O)NC1=O [MDK1248] (H-GWGIPWCTLDPGSLQCAWLGKHGG-OH; disulfide 7-16) |
